Reference: ChEMBL document CHEMBL1201861, “Genomics of Drug Sensitity in Cancer screening data, Wellcome Trust Sanger Institute”
pIC50: −log10 of the molar value.

How the values were obtained:
[1] = system: IST-SL2; assay: cells; format: functional, cell-based, Homo sapiens; details: Homo sapiens, IST-SL2;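 further: growth inhibition of human IST-SL2 cells, read out by a cell viability assay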
Description: SANGER: Inhibition of human IST-SL2 cell growth in a cell viability assay.

[2] = system: WSU-NHL; assay: cells; format: functional, cell-based, Homo sapiens; details: Homo sapiens, WSU-NHL
Description: SANGER: Inhibition of human WSU-NHL cell growth in a cell viability assay.

[3] = system: RPMI-6666; assay: cells; format: functional, cell-based, Homo sapiens; details: Homo sapiens, RPMI-6666
Description: SANGER: Inhibition of human RPMI-6666 cell growth in a cell viability assay.

[4] = system: NCI-H322M; assay: cells; format: functional, cell-based, Homo sapiens; details: Homo sapiens, NCI-H322M;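 further: cell viability assay measuring inhibition of growth of human NCI-H322M cells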
Description: SANGER: Inhibition of human NCI-H322M cell growth in a cell viability assay.

[5] = system: TUR; assay: cells; format: functional, cell-based, Homo sapiens; details: Homo sapiens, TUR
Description: SANGER: Inhibition of human TUR cell growth in a cell viability assay.

[6] = system: NCI-H1417; assay: cells; format: functional, cell-based, Homo sapiens; details: Homo sapiens, NCI-H1417;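 further: human NCI-H1417 cells, growth inhibition determined with a cell viability readout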
Description: SANGER: Inhibition of human NCI-H1417 cell growth in a cell viability assay.

[7] = system: SU-DHL-1; assay: SANGER: Inhibition of human SU-DHL-1 cell growth in a cell viability assay.; format: functional, cell-based; details: Homo sapiens, SU-DHL-1
[8] = system: TE-441-T; assay: cells; format: functional, cell-based, Homo sapiens; details: Homo sapiens, TE-441-T
Description: SANGER: Inhibition of human TE-441-T cell growth in a cell viability assay.

[9] = system: SNU-C1; assay: cells; format: functional, cell-based, Homo sapiens; details: Homo sapiens, SNU-C1;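 further: growth inhibition of SNU-C1 human cells, read out by a cell viability assay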
Description: SANGER: Inhibition of human SNU-C1 cell growth in a cell viability assay.

[10] = system: RPMI 8402; assay: SANGER: Inhibition of human RPMI-8402 cell growth in a cell viability assay.; format: functional, cell-based; details: Homo sapiens, RPMI 8402; read-out: IC50
[11] = system: NCI-H1522; assay: cells; format: functional, cell-based, Homo sapiens; details: Homo sapiens, NCI-H1522;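 further: growth inhibition of NCI-H1522 cells, read out with a cell viability assay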
Description: SANGER: Inhibition of human NCI-H1522 cell growth in a cell viability assay.

[12] = system: ARH-77; assay: cells; format: functional, cell-based, Homo sapiens; details: Homo sapiens, ARH-77;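 further: growth inhibition of ARH-77 cells, read out by a cell viability assay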
Description: SANGER: Inhibition of human ARH-77 cell growth in a cell viability assay.

[13] = system: GAMG; assay: cells; format: functional, cell-based, Homo sapiens; details: Homo sapiens, GAMG;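 further: cell growth inhibition measured by a viability assay in the GAMG human cell line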
Description: SANGER: Inhibition of human GAMG cell growth in a cell viability assay.

[14] = system: KYSE-520 cell line; assay: cells; format: functional, cell-based, Homo sapiens; details: Homo sapiens, KYSE-520;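 further: growth inhibition of human KYSE-520 cells, read out with a viability assay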
Description: SANGER: Inhibition of human KYSE-520 cell growth in a cell viability assay.

[15] = system: BHY; assay: cells; format: functional, cell-based, Homo sapiens; details: Homo sapiens, BHY
Description: SANGER: Inhibition of human BHY cell growth in a cell viability assay.

[16] = system: CAL-54; assay: cells; format: functional, cell-based, Homo sapiens; details: Homo sapiens, CAL-54;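 further: growth inhibition of CAL-54 cells, read out by a viability measurement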
Description: SANGER: Inhibition of human CAL-54 cell growth in a cell viability assay.

[17] = system: MDA-MB-361; assay: cells; format: functional, cell-based, Homo sapiens; details: Homo sapiens, MDA-MB-361
[18] = system: CHP-212; assay: cells; format: functional, cell-based, Homo sapiens; details: Homo sapiens, CHP-212
Description: SANGER: Inhibition of human CHP-212 cell growth in a cell viability assay.

[19] = system: CWR22R; assay: cells; format: functional, cell-based, Homo sapiens; details: Homo sapiens, 22Rv1;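 further: growth inhibition of 22Rv1 cells, read out with a cell viability assay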
Description: SANGER: Inhibition of human 22RV1 cell growth in a cell viability assay.

[20] = system: CAPAN-1; assay: cells; format: functional, cell-based, Homo sapiens; details: Homo sapiens, CAPAN-1;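 further: growth suppression of CAPAN-1 cells, read out by a cell viability assay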
Description: SANGER: Inhibition of human CAPAN-1 cell growth in a cell viability assay.

[21] = system: CAL-120; assay: cells; format: functional, cell-based, Homo sapiens; details: Homo sapiens, CAL-120
Description: SANGER: Inhibition of human CAL-120 cell growth in a cell viability assay.

[22] = system: MeWo; assay: cells; format: functional, cell-based, Homo sapiens; details: Homo sapiens, MeWo;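 further: growth inhibition of MeWo cells, determined by a cell viability readout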
Description: SANGER: Inhibition of human Mewo cell growth in a cell viability assay.

[23] = system: MDA-MB-157; assay: cells; format: functional, cell-based, Homo sapiens; details: Homo sapiens, MDA-MB-157
Description: SANGER: Inhibition of human MDA-MB-157 cell growth in a cell viability assay.

[24] = system: TYK-nu; assay: cells; format: functional, cell-based, Homo sapiens; details: Homo sapiens, TYK-nu
Description: SANGER: Inhibition of human TYK-nu cell growth in a cell viability assay.

[25] = system: SF-295; assay: cells; format: functional, cell-based, Homo sapiens; details: Homo sapiens, SF-295;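 further: growth inhibition of SF-295 cells, read out with a cell viability assay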
Description: SANGER: Inhibition of human SF295 cell growth in a cell viability assay.

[26] = system: AU565; assay: cells; format: functional, cell-based, Homo sapiens; details: Homo sapiens, AU565;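 further: cell viability assay measuring growth inhibition of human AU565 cells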
Description: SANGER: Inhibition of human AU565 cell growth in a cell viability assay.

[27] = system: SAOS-2; assay: cells; format: functional, cell-based, Homo sapiens; details: Homo sapiens, SAOS-2;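 further: growth inhibition of human Saos-2 cells determined by a cell viability assay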
Description: SANGER: Inhibition of human Saos-2 cell growth in a cell viability assay.

[28] = system: KU-19-19; assay: cells; format: functional, cell-based, Homo sapiens; details: Homo sapiens, KU-19-19
Description: SANGER: Inhibition of human KU-19-19 cell growth in a cell viability assay.

[29] = system: NCI-H2405; assay: cells; format: functional, cell-based, Homo sapiens; details: Homo sapiens, NCI-H2405
Description: SANGER: Inhibition of human NCI-H2405 cell growth in a cell viability assay.

[30] = system: LoVo; assay: cells; format: functional, cell-based, Homo sapiens; details: Homo sapiens, LoVo
Description: SANGER: Inhibition of human LoVo cell growth in a cell viability assay.

[31] = system: IGROV-1; assay: cells; format: functional, cell-based, Homo sapiens; details: Homo sapiens, IGROV-1;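 further: reduction of IGROV-1 cell growth, read out with a viability assay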
Description: SANGER: Inhibition of human IGROV-1 cell growth in a cell viability assay.

[32] = system: FaDu; assay: cells; format: functional, cell-based, Homo sapiens; details: Homo sapiens, FaDu;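 further: cell viability readout of growth inhibition in FaDu cells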
Description: SANGER: Inhibition of human FADU cell growth in a cell viability assay.

[33] = system: SiHa; assay: cells; format: functional, cell-based, Homo sapiens; details: Homo sapiens, SiHa;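 further: Viability-based readout of growth inhibition in SiHa cells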
Description: SANGER: Inhibition of human SiHa cell growth in a cell viability assay.

[34] = system: MEL-HO; assay: cells; format: functional, cell-based, Homo sapiens; details: Homo sapiens, MEL-HO
Description: SANGER: Inhibition of human MEL-HO cell growth in a cell viability assay.

[35] = system: G-361; assay: cells; format: functional, cell-based, Homo sapiens; details: Homo sapiens, G-361
[36] = system: HT-3; assay: cells; format: functional, cell-based, Homo sapiens; details: Homo sapiens, HT-3;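 further: growth inhibition measured with a cell viability readout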
Description: SANGER: Inhibition of human HT-3 cell growth in a cell viability assay.

[37] = system: SW837; assay: cells; format: functional, cell-based, Homo sapiens; details: Homo sapiens, SW837;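 further: growth inhibition of SW837 cells, determined with a cell viability assay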
Description: SANGER: Inhibition of human SW837 cell growth in a cell viability assay.

[38] = system: DBTRG-05MG; assay: cells; format: functional, cell-based, Homo sapiens; details: Homo sapiens, DBTRG-05MG;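 further: cell viability assay measuring growth inhibition of human DBTRG-05MG cells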
Description: SANGER: Inhibition of human DBTRG-05MG cell growth in a cell viability assay.

[39] = system: A-427; assay: cells; format: functional, cell-based, Homo sapiens; details: Homo sapiens, A-427;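 further: growth inhibition of human A-427 cells, read out by a cell viability assay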
Description: SANGER: Inhibition of human A427 cell growth in a cell viability assay.

[40] = system: T98G; assay: cells; format: functional, cell-based, Homo sapiens; details: Homo sapiens, T98G;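 further: growth inhibition of T98G cells, read out by a cell viability assay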
Description: SANGER: Inhibition of human T98G cell growth in a cell viability assay.

[41] = system: MKN-28; assay: cells; format: functional, cell-based, Homo sapiens; details: Homo sapiens, MKN-28;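 further: cell viability assay read-out, IC50 reflects suppression of growth of human MKN-28 cells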
Description: SANGER: Inhibition of human MKN28 cell growth in a cell viability assay.

[42] = system: EFO-21; assay: cells; format: functional, cell-based, Homo sapiens; details: Homo sapiens, EFO-21;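 further: growth inhibition of EFO-21 cells measured with a viability assay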
Description: SANGER: Inhibition of human EFO-21 cell growth in a cell viability assay.

[43] = system: SBC-5; assay: cells; format: functional, cell-based, Homo sapiens; details: Homo sapiens, SBC-5;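 further: cell viability assay read-out, IC50 is the concentration that inhibits growth of the cells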
Description: SANGER: Inhibition of human SBC-5 cell growth in a cell viability assay.

[44] = system: NUGC-3; assay: cells; format: functional, cell-based, Homo sapiens; details: Homo sapiens, NUGC-3;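 further: growth inhibition of human NUGC-3 cells, read out with a cell viability assay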
Description: SANGER: Inhibition of human NUGC-3 cell growth in a cell viability assay.

[45] = system: PC-14; assay: cells; format: functional, cell-based, Homo sapiens; details: Homo sapiens, PC-14;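 further: cell viability assay measuring inhibition of PC-14 cell growth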
Description: SANGER: Inhibition of human PC-14 cell growth in a cell viability assay.

In the case of `OCCCNc1cc(-c2ccnc(Nc3cccc(Cl)c3)n2)ccn1`, the pIC50 [1] was 7.60, the pIC50 [2] was < 6.59 and the pIC50 [3] was 7.30. The pIC50 [4] was < 6.59, the pIC50 [5] was < 6.59 and the pIC50 [6] was < 6.59. The pIC50 [7] was 6.68, the pIC50 [8] was 7.42 and the pIC50 [9] was < 6.59. For the same molecule, the pIC50 [10] was 7.15, the pIC50 [11] was < 6.59 and the pIC50 [12] was 7.09.

In the case of `Oc1ccc2ccccc2c1SSc1c(O)ccc2ccccc12`, the pIC50 [13] was < 4.49, the pIC50 [14] was < 4.49 and the pIC50 [15] was 4.61. For the same molecule, the pIC50 [16] was < 4.49, the pIC50 [17] was < 4.49 and the pIC50 [1] was 4.68. The pIC50 [18] was 5.04, the pIC50 [19] was < 4.49 and the pIC50 [20] was < 4.49. For the same molecule, the pIC50 [21] was < 4.49, the pIC50 [2] was 5.26 and the pIC50 [22] was < 4.49. For the same molecule, the pIC50 [23] was < 4.49, the pIC50 [24] was < 4.49 and the pIC50 [25] was < 4.49. The pIC50 [26] was 4.51, the pIC50 [27] was < 4.49 and the pIC50 [3] was < 4.49. For the same molecule, the pIC50 [28] was < 4.49, the pIC50 [29] was 4.92 and the pIC50 [30] was < 4.49. The pIC50 [31] was < 4.49, the pIC50 [4] was < 4.49 and the pIC50 [5] was < 4.49. For the same molecule, the pIC50 [32] was < 4.49, the pIC50 [33] was < 4.49 and the pIC50 [34] was < 4.49. For the same molecule, the pIC50 [35] was < 4.49, the pIC50 [36] was < 4.49 and the pIC50 [37] was < 4.49. For the same molecule, the pIC50 [6] was < 4.49, the pIC50 [38] was < 4.49 and the pIC50 [7] was < 4.49. The pIC50 [39] was < 4.49, the pIC50 [40] was < 4.49 and the pIC50 [8] was 4.94. The pIC50 [41] was 4.76, the pIC50 [42] was < 4.49 and the pIC50 [9] was < 4.49. The pIC50 [43] was < 4.49, the pIC50 [10] was 5.24 and the pIC50 [11] was < 4.49. The pIC50 [12] was < 4.49, the pIC50 [44] was < 4.49 and the pIC50 [45] was < 4.49.

With `Cc1ccc(-c2c(C(=O)CCl)n(CCCO)c3ncnc(N)c23)cc1` the pIC50 [1] was < 5.40, the pIC50 [2] was < 5.40 and the pIC50 [3] was 5.63. For the same molecule, the pIC50 [4] was < 5.40, the pIC50 [5] was < 5.40 and the pIC50 [6] was < 5.40. For the same molecule, the pIC50 [7] was < 5.40, the pIC50 [8] was < 5.40 and the pIC50 [9] was < 5.40. For the same molecule, the pIC50 [10] was < 5.40, the pIC50 [11] was < 5.40 and the pIC50 [12] was < 5.40.
